# What was measured:
# UACC-62 (Melanoma) = test: combination Emax (second highest fraction inhibited in the dose matrix, 72 h); higher = more inhibition; extreme values may be limits of the assay
# Method in brief: (§1)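 Cell lines in DMEM/F12 or RPMI with 10% FBS were plated in 1536-well plates, held 24 hours at 37°C, 5% CO2, then given two-drug dose matrices for 72 hours (DMSO typically 0.2%). Viability was read by CellTiter-Glo 2.0 luminescence and scaled as inhibition from 0 (vehicle wells) to 1 (blank wells). Combination Emax is the second-highest inhibition in the matrix; Bliss excess is observed combination effect minus expected EA + EB − EA·EB, EA and EB being single-agent effects.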
# [1] = test system: KMOE-2 (Acute Myeloid Leukemia); test: Bliss excess, mean over the matrix (fraction); higher = more synergy
# Method in brief: as §1
# PWR-1E (Non-Cancerous) = test: as above
# Method in brief: as §1
# EW-24 (Ewing's Sarcoma) = test: as above
# Method in brief: as §1
# [2] = test system: KARPAS-299 (T-Cell Non-Hodgkin's Lymphoma); test: as above
# Method in brief: as §1
# [3] = test system: BT-549 (Breast Carcinoma); test: as above
# Method in brief: as §1
# [4] = test system: KYSE-450 (Esophageal Squamous Cell Carcinoma); test: as above
# Method in brief: as §1
# [5] = test system: EFM-19 (Breast Carcinoma); test: as above
# Method in brief: as §1
# [6] = test system: HGC-27 (Gastric Carcinoma); test: as above
# Method in brief: as §1
# [7] = test system: SW13 (Other Solid Carcinomas); test: as above
# Method in brief: as §1
# [8] = test system: HOP-62 (Lung Adenocarcinoma); test: as above
# Method in brief: as §1
# [9] = test system: RF-48 (B-Cell Non-Hodgkin's Lymphoma); test: as above
# Method in brief: as §1
# TK10 (Kidney Carcinoma) = test: as above
# Method in brief: as §1
# NB69 (Neuroblastoma) = test: as above
# Method in brief: as §1
# [10] = test system: NCI-H727 (Other Solid Carcinomas); test: as above
# Method in brief: as §1
# [11] = test system: NCI-H358 (Lung Adenocarcinoma); test: as above
# Method in brief: as §1
# [12] = test system: MIA-PaCa-2 (Pancreatic Carcinoma); test: as above
# Method in brief: as §1
# [13] = test system: SU8686 (Pancreatic Carcinoma); test: as above
# Method in brief: as §1
# [14] = test system: Ca9-22 (Head and Neck Carcinoma); test: as above
# Method in brief: as §1
# [15] = test system: OE19 (Esophageal Adenocarcinoma); test: as above
# Method in brief: as §1
# 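Throughout, for Bliss excess, mean over the matrix: after 72 h of two-drug dosing.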
Structure (SMILES),combination Emax (UACC-62 (Melanoma)),Bliss excess [1],Bliss excess (PWR-1E (Non-Cancerous)),Bliss excess (EW-24 (Ewing's Sarcoma)),Bliss excess [2],Bliss excess [3],Bliss excess [4],Bliss excess [5],Bliss excess [6],Bliss excess [7],Bliss excess [8],Bliss excess [9],Bliss excess (TK10 (Kidney Carcinoma)),Bliss excess (NB69 (Neuroblastoma)),Bliss excess [10],Bliss excess [11],Bliss excess [12],Bliss excess [13],Bliss excess [14],Bliss excess [15]
"CC1(C)CCC(CN2CCN(c3ccc(C(=O)NS(=O)(=O)c4ccc(NCC5CCOCC5)c([N+](=O)[O-])c4)c(Oc4cnc5[nH]ccc5c4)c3)CC2)=C(c2ccc(Cl)cc2)C1 [Venetoclax] + C[C@@H]1COCCN1C2=NC(=NC(=C2)C3(CC3)[S@](=N)(=O)C)C4=C5C=CNC5=NC=C4 [AZD6738] (first compound max 1 µM, 7x7, partner max 10 µM)",0.481,0.0071,-0.0747,0.0218,-0.0328,-0.0331,-0.061,-0.0814,-0.0099,0.0075,-0.0649,-0.0039,-0.102,0.0496,-0.0801,-0.0224,-0.0632,-0.0285,-0.0019,-0.0691
"NC1(C(=O)N[C@@H](CCO)c2ccc(Cl)cc2)CCN(c2ncnc3[nH]ccc23)CC1 [Capivasertib] + CC(C)n1c(=O)n(C)c2cnc3cc(F)c(-c4ccc(OCCCN5CCCCC5)nc4)cc3c21 [AZD1390] (first compound max 10 µM, 7x7, partner max 0.3 µM)",0.572,-0.0666,-0.0341,-0.218,0.015,-0.071,-0.0209,-0.0614,-0.053,0.0127,-0.0893,-0.0052,-0.0798,-0.0787,-0.0922,-0.0088,-0.048,-0.0484,-0.0368,-0.0026
"COc1cccc(OCCCN)c1-c1cc(Nc2cnc(C#N)cn2)n[nH]1 [Prexasertib] + C=CCn1c(=O)c2cnc(Nc3ccc(N4CCN(C)CC4)cc3)nc2n1-c1cccc(C(C)(C)O)n1 [AZD1775] (first compound max 1 µM, partner max 1 µM)",0.798,0.0637,0.0706,-0.1,-0.0076,0.0433,0.219,0.025,0.108,0.0659,0.0474,0.0178,0.0018,0.0657,0.0061,-0.0027,0.143,0.0024,0.0833,0.114
"COc1cccc(OCCCN)c1-c1cc(Nc2cnc(C#N)cn2)n[nH]1 [Prexasertib] + Cc1cc2ncnn2cc1Nc1ncc2c(n1)n(C1CCOCC1)c(=O)n2C [AZD7648] (first compound max 1 µM, 7x7, partner max 10 µM)",0.823,0.0172,-0.0243,-0.0019,-0.0226,-0.0341,-0.0017,-0.0676,-0.0235,0.0009,-0.0063,-0.0549,0.0053,0.0182,-0.022,-0.0438,-0.0172,-0.0227,-0.0231,-0.0291
"Cc1c2c(nn1C)CSCc1cc(n(C)n1)CSc1cc(c3ccccc3c1)OCCCc1c(C(=O)O)n(C)c3c-2c(Cl)ccc13 [AZD5991] + C=CCn1c(=O)c2cnc(Nc3ccc(N4CCN(C)CC4)cc3)nc2n1-c1cccc(C(C)(C)O)n1 [AZD1775] (first compound max 1 µM, partner max 1 µM)",0.901,0.0087,-0.0124,0.0056,-0.0032,0.024,0.025,0.054,-0.0061,0.0002,-0.0288,0.0064,0.0159,-0.0267,-0.0171,-0.0047,-0.0424,0.0175,-0.032,-0.0082
"CC1(C)CCC(CN2CCN(c3ccc(C(=O)NS(=O)(=O)c4ccc(NCC5CCOCC5)c([N+](=O)[O-])c4)c(Oc4cnc5[nH]ccc5c4)c3)CC2)=C(c2ccc(Cl)cc2)C1 [Venetoclax] + CN(C)CCCOc1ccc(-c2ccc3ncc4c(c3c2)n(C2CCOCC2)c(=O)n4C)cn1 [AZD0156] (first compound max 1 µM, 7x7, partner max 1 µM)",0.487,-0.0291,0.0005,0.0147,0.0353,-0.0049,-0.0795,-0.0184,0.0396,0.027,-0.0677,-0.0109,-0.0782,-0.0548,-0.0499,-0.0146,0.0184,-0.0036,0.0234,-0.0861
"COc1nnc2ccc(N3CCC(c4ccc(OCCN5CCN(C)C(=O)[C@H]5C)cc4)CC3)nn12 [AZD5153] + C[C@@H]1COCCN1C2=NC(=NC(=C2)C3(CC3)[S@](=N)(=O)C)C4=C5C=CNC5=NC=C4 [AZD6738] (first compound max 1 µM, 7x7, partner max 10 µM)",0.664,0.0743,0.0015,-0.0044,0.0074,-0.0139,0.0295,0.0541,-0.0376,-0.022,-0.0276,-0.0851,-0.0406,0.008,0.0364,-0.0855,0.0077,-0.0329,-0.0481,-0.0416
"C=CCn1c(=O)c2cnc(Nc3ccc(N4CCN(C)CC4)cc3)nc2n1-c1cccc(C(C)(C)O)n1 [AZD1775] + O=C(c1cc(Cc2n[nH]c(=O)c3ccccc23)ccc1F)N1CCN(C(=O)C2CC2)CC1 [Olaparib] (first compound max 1 µM, partner max 10 µM)",0.468,-0.0248,-0.0175,-0.0708,-0.0605,-0.0528,-0.0897,-0.0456,0.0224,-0.0137,-0.0381,0.0129,-0.0601,0.0619,-0.0055,-0.0184,-0.0344,-0.0399,-0.0664,-0.0561
"COc1nnc2ccc(N3CCC(c4ccc(OCCN5CCN(C)C(=O)[C@H]5C)cc4)CC3)nn12 [AZD5153] + Cc1c2c(nn1C)CSCc1cc(n(C)n1)CSc1cc(c3ccccc3c1)OCCCc1c(C(=O)O)n(C)c3c-2c(Cl)ccc13 [AZD5991] (first compound max 1 µM, 7x7, partner max 1 µM)",0.969,-0.0322,0.0557,-0.0044,-0.0277,0.0452,-0.0579,0.059,-0.0471,0.0258,-0.0482,-0.0863,-0.0459,-0.0334,-0.0398,-0.059,0.0438,-0.0221,0.0049,-0.0322
"CC1(C)CCC(CN2CCN(c3ccc(C(=O)NS(=O)(=O)c4ccc(NCC5CCOCC5)c([N+](=O)[O-])c4)c(Oc4cnc5[nH]ccc5c4)c3)CC2)=C(c2ccc(Cl)cc2)C1 [Venetoclax] + C[C@@H](Nc1cc(F)cc(F)c1)c1cc(C(=O)N(C)C)cc2c(=O)cc(N3CCOCC3)oc12 [AZD8186] (first compound max 1 µM, 7x7, partner max 3 µM)",0.398,-0.0254,-0.0112,-0.01,-0.0074,-0.0328,-0.0457,-0.0099,-0.0256,-0.0263,-0.0412,0.0481,-0.0887,-0.221,-0.0654,-0.0521,-0.0513,-0.0303,-0.0104,-0.0065
"COc1cccc(OCCCN)c1-c1cc(Nc2cnc(C#N)cn2)n[nH]1 [Prexasertib] + CN(C)CCCOc1ccc(-c2ccc3ncc4c(c3c2)n(C2CCOCC2)c(=O)n4C)cn1 [AZD0156] (first compound max 1 µM, 7x7, partner max 1 µM)",0.828,-0.0363,-0.0276,-0.0082,0.0074,-0.0094,-0.0713,-0.0701,-0.0193,0.0256,-0.0042,0.0213,-0.0239,0.0064,-0.0646,-0.034,-0.0391,-0.0068,-0.0123,0.0198
"COc1nnc2ccc(N3CCC(c4ccc(OCCN5CCN(C)C(=O)[C@H]5C)cc4)CC3)nn12 [AZD5153] + CC1(C)CCC(CN2CCN(c3ccc(C(=O)NS(=O)(=O)c4ccc(NCC5CCOCC5)c([N+](=O)[O-])c4)c(Oc4cnc5[nH]ccc5c4)c3)CC2)=C(c2ccc(Cl)cc2)C1 [Venetoclax] (first compound max 1 µM, 7x7, partner max 1 µM)",0.605,-0.0718,-0.0826,-0.0962,-0.0419,-0.0031,-0.0404,-0.0442,-0.0808,-0.0458,-0.0716,-0.0312,-0.0549,0.0488,-0.0558,-0.049,-0.0739,-0.0501,-0.0321,0.0029
"Cn1cnc2c(F)c(Nc3ccc(Br)cc3Cl)c(C(=O)NOCCO)cc21 [Selumetinib] + C=CCn1c(=O)c2cnc(Nc3ccc(N4CCN(C)CC4)cc3)nc2n1-c1cccc(C(C)(C)O)n1 [AZD1775] (first compound max 10 µM, partner max 1 µM)",0.827,0.0111,-0.0663,-0.0025,0.0463,-0.0578,-0.037,-0.0121,-0.052,-0.0576,-0.0468,-0.0372,-0.0412,-0.0004,-0.0891,-0.0471,0.0552,-0.0089,0.0321,-0.132
"NC1(C(=O)N[C@@H](CCO)c2ccc(Cl)cc2)CCN(c2ncnc3[nH]ccc23)CC1 [Capivasertib] + C[C@@H]1COCCN1C2=NC(=NC(=C2)C3(CC3)[S@](=N)(=O)C)C4=C5C=CNC5=NC=C4 [AZD6738] (first compound max 10 µM, 7x7, partner max 10 µM)",0.568,-0.0336,-0.0534,-0.0488,-0.0163,-0.0724,-0.0423,-0.0072,-0.0182,-0.049,-0.0695,-0.0888,-0.0604,-0.0728,-0.0734,-0.0896,-0.04,-0.032,-0.0386,-0.0619

# From the supplement of paper PMC11061612
